Values joined by “and” are separate entries in the source; they are usually repeats but may differ in a detail not shown here. Equal values may be shown once.
Tests used:
[1] = target: T1, Plasmodium falciparum lysyl t-RNA synthetase (Pf-KRS1) (Plasmodium falciparum, UniProt Q8IDJ8); test: Pf-KRS1 inhibition biochemical assay (Kinase-Glo, ATP depletion); conditions: read-out: Pf-KRS pIC50 (converted)
T1 construct: Pf KRS1-; made in house; host or cells: E. coli BL21 (DE3)
Source text: Plasmodium falciparum Lysine tRNA Synthetase (KRS1) Biochemical Assay Methodology.
Lysine tRNA Synthetase (KRS1) is an enzyme which catalyses the esterification of L-Lysine to the appropriate transfer ribonucleic acid (tRNA), to form an aminoacyl-tRNA. Once the tRNA is charged, a ribosome transfers the amino acid from the tRNA onto a growing peptide, according to the genetic code.
The substrates of this reaction are L-lysine, and adenosine triphosphate (ATP), the overall reaction is: amino acid+tRNA+ATP→aminoacyl-tRNA+AMP+PPi
In this overall reaction AMP is adenosine monophosphate and PP; is inorganic pyrophosphate. The reaction progression in a biochemical assay can be tracked by the depletion of one of the substrates, in the case of this invention, ATP. This was done using the proprietary assay kit, Kinase Glo® Assay which is a luminescent kinase assay platform suitable for monitoring kinase activities using up to 10 μm ATP which is commercially available from the Promega Corporation of Madison, Wis., USA. The Kinase-Glo® Assay was performed in a single well of a multiwell plate by adding a volume of Kinase-Glo® Reagent equal to the volume of a completed kinase reaction and measuring luminescence. The resulting luminescent signal is correlated with the amount of ATP present and is inversely correlated with the amount of kinase activity. As such by use of this assay methodology a reduction of the luminescent signal is relative to the reduction in ATP as the reaction progresses. A compound which inhibits the action of KRS will show no drop in the luminescent signal from assay controls.
Assays were performed using both Plasmodium falciparum and human KRS to assess any selectivity of various test compounds.
Test compounds were solubilized in DMSO at a top concentration of 10 mM and serially diluted 1 in 3 to achieve a range of final assay concentrations of 50 μM to 2.5 nM in 10 μl reaction volume.
KRS was diluted to a working concentration of 75 nM in assay buffer (25 mM HEPES, 25 mM KOH, 10 mM MgCl2.6H2O, 50 mM KCl), and the following ‘Master Mix’ prepared in assay buffer: 0.1 mg/ml BSA, 250 μM DTT, 200 μM Spermine, 0.05% NP-40, ATP 3 μM for Pf KRS1 (4 μM for Hs KRS1), 0.4 mg/ml tRNA from Yeast, 60 μM L-Lysine, 0.5 U/ml Pyrophosphatase.
Plates were incubated at room temperature for 5 h for Pf KRS (2.5 hrs for HsKRS), then the assay stopped by the addition of 10 μl of The Kinase-Glo® Reagent Assay was performed in a single well of a multiwell plate by adding a volume of Kinase-Glo® Reagent which is commercially available from the Promega Corporation of Madison, Wis., USA. The plates were incubated in the dark for a further 15 mins before being read for luminescence on a BMG PHERAstar® FSX plate reader which is a multi-mode reader for use in high-throughput screening available from BMG Labtech if Cary, N.C., USA. Data were analysed by calculating the percentage inhibition compared to the maximum and minimum assay controls. Concentration effect curves were fitted using nonlinear regression within ActivityBase and IC50 values were determined using standard protocols.

[2] = tested on: Plasmodium falciparum strain 3D7; test: Plasmodium falciparum 3D7 in vitro growth inhibition (SYBRgreen I); assay type: cell-based; conditions: for EC50: Plasmodium falciparum, 3D7, read-out: pEC50 for Pf 3D7 (converted)
Method: Parasite Cultures and Cytotoxicity Assay Methodology for Plasmodium falciparum. […] Growth inhibition of the Plasmodium falciparum cultures was quantified in a 10-point dose response curve with a 1 in 3 dilution series from a top assay concentration of 50 μM. This 384 well plate based fluorescence assay utilises the binding of SYBRgreen I (Thermo Fisher Scientific/Invitrogen cat. no. S7585) to double stranded DNA, which greatly increases the fluorescent signal at 528 nm after excitation at 485 nm. Mefloquine was used as a drug control to monitor the quality of the assay (Z′=0.6 to 0.8, where Z′ is a measure of the discrimination between the positive and negative controls on a screen plate). Dose-response curves were determined from a minimum of 3 independent experiments. Compound bioactivity was expressed as EC50, the effective concentration of compound causing 50% parasite death.

[3] = tested on: Cryptosporidium parvum; test: In vitro Crytosporidium inhibition assay; assay type: cell-based; conditions: Cryptosporidium parvum; read-out: Cryptosporidium parvum pEC50 (converted)
Source text: Assay Method for Measurement of In Vitro Inhibition of Crytosporidium.
These experiments were run in accordance with the method of Besssoff et. al. Antimicrob. Agents Chemother. 2013, 57:1804-1814. Results from these experiments are provided in the Experimental Results hereinafter.

[4] = tested on: Hep G2; test: Hep G2 in-vitro cytotoxicity assay; assay type: cell-based; conditions: Homo sapiens, HepG2, read-out: Hs HEPG2 pEC50 (converted)
Source text: In-vitro cytotoxicity studies can be carried out using Hep G2 (Human hepatocyte carcinoma, HPACC cat. no. 85011430) used as indicators for general mammalian cell toxicity. Hep G2 in-vitro cytotoxicity can be assessed using the assay procedure as described in “Use of a human-derived liver cell line for the detection of cytoprotective, antigenotoxic and cogenotoxic agents”, Volker Mersch-Sundermann, Siegfried Knasmüller, Xin-jiang Wu, Firouz Darroudi, Fekadu Kassie. J. Tox 198 (2004) 329-340) the contents of which are incorporated herein by reference.

T1 sequence (Q8IDJ8 entry or part of it, looked up, natural form): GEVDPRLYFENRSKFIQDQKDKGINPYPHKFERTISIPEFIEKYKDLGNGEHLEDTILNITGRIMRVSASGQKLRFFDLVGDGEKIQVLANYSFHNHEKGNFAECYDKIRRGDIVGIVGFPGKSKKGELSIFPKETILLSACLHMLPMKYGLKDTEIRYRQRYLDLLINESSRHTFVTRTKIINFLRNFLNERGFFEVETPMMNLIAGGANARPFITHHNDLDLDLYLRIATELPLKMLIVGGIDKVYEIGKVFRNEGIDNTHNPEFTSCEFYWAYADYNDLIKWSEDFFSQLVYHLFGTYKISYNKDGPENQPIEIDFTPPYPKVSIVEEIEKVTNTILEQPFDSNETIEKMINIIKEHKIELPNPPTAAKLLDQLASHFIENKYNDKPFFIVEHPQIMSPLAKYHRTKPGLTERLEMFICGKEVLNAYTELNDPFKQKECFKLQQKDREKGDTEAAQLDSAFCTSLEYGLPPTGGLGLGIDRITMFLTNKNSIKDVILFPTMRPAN

In the case of `O=C(NCC1CCCCC1)c1cc(=O)c2ccc(O)cc2o1` [Example 4, N-(cyclohexylmethyl)-7-hydroxy-4-oxo-chromene-2-carboxamide], the IC50 [1] is reported as 1000 nM, the EC50 [2] is reported as 1260 nM and the EC50 [3] is reported as 1580 nM. It also gave an EC50 [4] of 50100 nM.

In the case of `O=C(NCC1CCCCC1)c1cc(=O)c2ccc(Cl)cc2o1` [Example 9, 7-chloro-N-(cyclohexylmethyl)-4-oxo-chromene-2-carboxamide], the IC50 [1] is reported as 200 nM, the EC50 [2] is reported as 1580 nM and the EC50 [3] is reported as 3550 nM.

In the case of `O=C(NCC1CCC(F)(F)CC1)c1cc(=O)c2ccccc2o1` [Example 21, N-[(4,4-difluorocyclohexyl)methyl]-4-oxo-chromene-2-carboxamide], the EC50 [3] is reported as 7940 nM and the EC50 [4] is reported as 50100 nM.

`O=C(NCC1CCCC1)c1cc(=O)c2ccccc2o1` [Example 23, N-(cyclopentylmethyl)-4-oxo-chromene-2-carboxamide] showed an IC50 [1] of 398 nM, an EC50 [2] of 1580 nM and an EC50 [3] of 2000 nM.

`O=C(NCCC1CCCC1)c1cc(=O)c2ccccc2o1` [Example 26, N-(2-cyclopentylethyl)-4-oxo-chromene-2-carboxamide] was tested, and the IC50 [1] was 501 nM, the EC50 [2] was 6310 nM and the EC50 [3] was 10000 nM.

With `O=C(NCC1(O)CCCCC1)c1cc(=O)c2ccccc2o1` [Example 27, N-[(1-hydroxycyclohexyl)methyl]-4-oxo-chromene-2-carboxamide] the IC50 [1] was 126 nM, the EC50 [2] was 251 nM and the EC50 [3] was 316 nM. The EC50 [4] was 50100 nM.

With `O=C(NCC1CC2CCC1C2)c1cc(=O)c2cc(F)ccc2o1` (centres unmarked) [Example 36, 6-fluoro-N-(norbornan-2-ylmethyl)-4-oxo-chromene-2-carboxamide] the IC50 [1] was 126 nM, the EC50 [2] was 794 nM and the EC50 [3] was 1260 nM.

For `O=C(NCC1(CO)CCCCC1)c1cc(=O)c2cc(F)ccc2o1` [Example 40, 6-fluoro-N-[[1-(hydroxymethyl)cyclohexyl]methyl]-4-oxo-chromene-2-carboxamide], the IC50 [1] was 251 nM, the EC50 [2] was 794 nM and the EC50 [3] was 1580 nM. For the same compound, the EC50 [4] was 50100 nM.

`O=C(NCC1(CCO)CCCCC1)c1cc(=O)c2cc(F)ccc2o1` [Example 40A, 6-Fluoro-N-((1-(2-hydroxyethyl)cyclohexyl)methyl)-4-oxo-4H-chromene-2-carboxamide] was tested, and the IC50 [1] was 200 nM, the EC50 [2] was 200 nM and the EC50 [4] was 50100 nM.

Work on `O=C(NCC1(O)CCCCC1)c1cc(=O)c2cc(F)ccc2o1` [Example 41, 6-fluoro-N-[(1-hydroxycyclohexyl)methyl]-4-oxo-chromene-2-carboxamide] yielded an IC50 [1] of 100 nM, an EC50 [2] of 200 nM and an EC50 [3] of 501 nM. For the same compound, the EC50 [4] was 25100 nM.

`O=C(NCC1CCCCC1)c1cc(=O)c2ccc(F)cc2o1` [Example 42, N-(cyclohexylmethyl)-7-fluoro-4-oxo-chromene-2-carboxamide] showed an IC50 [1] of 200 nM, an EC50 [2] of 794 nM and an EC50 [3] of 1260 nM.

`NC(=O)c1ccc2oc(C(=O)NCC3CCCCC3)cc(=O)c2c1` [Example 43, N2-(cyclohexylmethyl)-4-oxo-chromene-2,6-dicarboxamide] showed an IC50 [1] of 398 nM, an EC50 [2] of 3160 nM and an EC50 [3] of 5010 nM.

With `C[C@H](NC(=O)c1cc(=O)c2cc(F)ccc2o1)C1CCCCC1` [Example 49A, (S)—N-(1-cyclohexylethyl)-6-fluoro-4-oxo-4H-chromene-2-carboxamide] the IC50 [1] was 126 nM, the EC50 [2] was 398 nM and the EC50 [3] was 158 nM.

`O=C(NCC1(O)CCC(F)(F)CC1)c1cc(=O)c2cc(F)cc(F)c2o1` [Example 56, N-((4,4-difluoro-1-hydroxycyclohexyl)methyl)-6,8-difluoro-4-oxo-4H-chromene-2-carboxamide] showed an IC50 [1] of 316 nM, an EC50 [2] of 1580 nM and an EC50 [3] of 7940 nM.

`O=C(NCC1(O)CCC(F)(F)CC1)c1cc(=O)c2cc(O)ccc2o1` [Example 57, N-[(4,4-difluoro-1-hydroxy-cyclohexyl)methyl]-6-hydroxy-4-oxo-chromene-2-carboxamide] was tested, and the IC50 [1] was 126 nM, the EC50 [2] was 158 nM and the EC50 [3] was 5010 nM.

With `O=C(O)CC1(CNC(=O)c2cc(=O)c3cc(F)ccc3o2)CCCCC1` [Example 57L, 2-(1-((6-fluoro-4-oxo-4H-chromene-2-carboxamido)methyl)cyclohexyl)acetic acid] the EC50 [2] was 794 nM, the EC50 [3] was 5010 nM and the EC50 [4] was 50100 nM.

In the case of `O=C(NCC1CCCCC1)c1cc(=O)c2cccc(O)c2o1` [Example 67, N-(cyclohexylmethyl)-8-hydroxy-4-oxo-4H-chromene-2-carboxamide], the IC50 [1] is reported as 63.1 nM, the EC50 [2] is reported as 63.1 nM and the EC50 [3] is reported as 316 nM.

`COc1cc2c(=O)cc(C(=O)NCC3CCCCC3)oc2cc1F` [Example 71, N-(cyclohexylmethyl)-7-fluoro-6-methoxy-4-oxo-4H-chromene-2-carboxamide] was tested, and the IC50 [1] was 398 nM, the EC50 [2] was 3160 nM and the EC50 [3] was 3980 nM.

In the case of `O=C(NCC1(O)CCCCC1)c1cc(=O)c2cc(Cl)cc(O)c2o1` [Example 73, 6-Chloro-8-hydroxy-N-((1-hydroxycyclohexyl)methyl)-4-oxo-4H-chromene-2-carboxamide], the IC50 [1] is reported as 50.1 nM, the EC50 [3] is reported as 39.8 nM and the EC50 [4] is reported as 20000 nM.

For `O=C(NCC1CCC(F)(F)CC1)c1cc(=O)c2ccc(F)c(O)c2o1` [Example 79, N-((4,4-difluorocyclohexyl)methyl)-7-fluoro-8-hydroxy-4-oxo-4H-chromene-2-carboxamide], the IC50 [1] was 200 nM, the EC50 [3] was 794 nM and the EC50 [4] was 50100 nM.

`O=C(NCC1CCCCC1)c1cc(=O)c2cccc(CO)c2o1` [Example 82, N-(cyclohexylmethyl)-8-(hydroxymethyl)-4-oxo-chromene-2-carboxamide] gave an IC50 [1] of 251 nM, an EC50 [2] of 200 nM and an EC50 [4] of 50100 nM.

For `O=C(NCC1CCCCC1)c1cc(=O)c2cccc(C(=O)O)c2o1` [Example 88, 2-((Cyclohexylmethyl)carbamoyl)-4-oxo-4H-chromene-8-carboxylic acid], the EC50 [3] was 7940 nM.

For `Cc1c(C(=O)NCC2CCCCC2)oc2ccc(F)cc2c1=O` [Example 91, N-(cyclohexylmethyl)-6-fluoro-3-methyl-4-oxo-4H-chromene-2-carboxamide], the IC50 [1] was 631 nM, the “pEC50 for Pf 3D7” value [2] was 5.2 and the EC50 [2] was 5010 nM. It also gave an EC50 [3] of 2510 nM.

`Nc1cc(F)cc2c(=O)cc(C(=O)NCC3(O)CCC(F)(F)CC3)oc12` [Example 93, 8-amino-N-[(4,4-difluoro-1-hydroxy-cyclohexyl)methyl]-6-fluoro-4-oxo-chromene-2-carboxamide] was tested, and the IC50 [1] was 50.1 nM and 63.1 nM, the EC50 [3] was 501 nM and the EC50 [4] was 12600 nM.

`CS(=O)(=O)Nc1cc(F)cc2c(=O)cc(C(=O)NCC3CCCCC3)oc12` [Example 100, N-(cyclohexylmethyl)-6-fluoro-8-(methanesulfonamido)-4-oxo-chromene-2-carboxamide] gave an IC50 [1] of 158 nM, an EC50 [2] of 200 nM and an EC50 [4] of 50100 nM.

Reference: patent publication US11485720B2, “Anti-infective agents” (University of Dundee, priority 2016, dated 2022)
